From patent US10900063B2, “Measurement of Lp-PLA2 activity” (ASAHI KASEI PHARMA CORPORATION, priority 2016, dated 2021)

Tests used:
Lp-PLA2 = target: T1, Lp-PLA2 (Homo sapiens, UniProt Q13093); assay: Lp-PLA2 activity measurement in serum/plasma with reagents of the invention (PAF substrate, lyso-PAF-PLD, choline oxidase, peroxidase colorimetry); assay type: biochemical; conditions: for Relative activity: PAF(C16) = 100; for values for absorbance change (sensitivity) compared with DAOS: Trinder reagent with 4-AA
T1 construct: Individual serum No. 16, individual serum No. 78; from tissue; host or cells: serum and plasma (individual sera, pooled sera, heparin and citrated pooled plasma)
T1 sequence (Q13093 22-441): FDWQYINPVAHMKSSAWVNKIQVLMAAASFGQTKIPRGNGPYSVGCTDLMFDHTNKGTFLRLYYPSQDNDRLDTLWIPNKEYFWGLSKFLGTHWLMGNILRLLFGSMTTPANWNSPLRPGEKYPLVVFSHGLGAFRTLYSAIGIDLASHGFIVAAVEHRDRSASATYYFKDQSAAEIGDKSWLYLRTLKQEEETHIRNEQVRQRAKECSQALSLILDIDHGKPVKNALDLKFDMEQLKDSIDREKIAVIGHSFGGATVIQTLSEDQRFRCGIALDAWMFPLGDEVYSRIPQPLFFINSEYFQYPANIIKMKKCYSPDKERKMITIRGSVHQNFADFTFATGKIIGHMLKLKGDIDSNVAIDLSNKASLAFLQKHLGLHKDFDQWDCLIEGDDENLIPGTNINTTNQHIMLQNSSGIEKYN
Experimental: Unless otherwise specified, in these examples the Method 1 described under 1) below is used for calculating Lp-PLA2 activity values. In these examples, (nmol/min/mL) is sometimes expressed as (U/L).
This is calculated by the following formula based on the absorbance change per minute (ΔmAbs/min) as calculated from absorbance at the measuring points and the millimolar extinction coefficient (ε=36) of TODB at 546 nm.
(§1) 4 μL of the sample was mixed with 160 μL of the R1 reagent, and incubated for 5 minutes at 37° C. (measuring points 1 to 16), after which 40 μL of the R2 reagent was added to initiate a reaction (measuring point 17). The absorbance of water (blank) at the same measuring points was subtracted from the absorbance of the sample about 3.6 to 4.5 minutes after the reaction was initiated by addition of the R2 reagent (measuring points 30 to 33) to calculate the absorbance change per minute (ΔmAbs/min), and the Lp-PLA2 activity value (nmol/min/mL) was calculated according to the previous formula.
[…] was mixed with 150 μL of the R1 reagent, and incubated for 5 minutes at 37° C. (measuring points 1 to 15), after which 100 μL of the R2 reagent was added to initiate a reaction (measuring point 16). The absorbance of water (blank) at the same measuring points was subtracted from the absorbance of the sample about 2 to 3 minutes after the reaction was initiated by addition of the R2 reagent (measuring points 23 to 26) to calculate the absorbance change per minute (ΔmAbs/min), and the Lp-PLA2 activity value (nmol/min/mL) was calculated according to the previous formula. The values for absorbance change per minute (sensitivity) (ΔmAbs/min) and the Lp-PLA2 activity values (nmol/min/mL) at each pH are shown in Tables 1 and 2.
(§2) 5 μL of sample was mixed with 150 μL of the R1 reagent, and incubated for 5 minutes at 37° C. (measuring points 1 to 15), after which 100 μL of the R2 reagent was added to initiate a reaction (measuring point 16). The absorbance of water (blank) at the same measuring points was subtracted from the absorbance of the sample about 3.5 to 4.5 minutes after the reaction was initiated by addition of the R2 reagent (measuring points 27 to 30) to calculate the absorbance change per minute (ΔmAbs/min), and the Lp-PLA2 activity value (nmol/min/mL) was calculated according to the previous formula. The values for absorbance change per minute (sensitivity) (ΔmAbs/min) and Lp-PLA2 activity (nmol/min/mL) and the relative activity for each substrate given 100 as the Lp-PLA2 activity value for PAF(C16) are shown in Tables 19 to 24.
Each sample was mixed with 160 μL of the R1 reagent, and incubated for 5 minutes at 37° C., (measuring points 1 to 15), after which 40 μL of the R2 reagent was added to initiate the reaction (measuring point 16). The absorbance of water (blank) at the same measuring points was subtracted from the absorbance of the sample about 3.5 to 4.5 minutes after the reaction was initiated by addition of the R2 reagent (measuring points 27 to 30) to calculate the absorbance change per minute (ΔmAbs/min), and the Lp-PLA2 activity value (nmol/min/mL) was calculated according to the previous formula. […]
as §1, with “(measuring” for “4 μL of the sample was mixed with 160 μL of the R1 reagent, and incubated for 5 minutes at 37° C. (measuring”, “100” for “40”, “3.5” for “3.6”, “29” for “30”, “32)” for “33)”

rLp-PLA2 = target: T2, rLp-PLA2 (Homo sapiens, UniProt Q13093, I42M); assay: Lp-PLA2 activity measurement with reagents of the invention, recombinant Lp-PLA2 as sample; assay type: biochemical; conditions: Example 9, sample rLp-PLA2 (0.017 mg/mL)
T2 construct: histidine tag (from vector pET-19b) (N); made in house; host or cells: E. coli BL21(DE3), plasmid Lp-PLA2/pET-19b
T2 sequence (Q13093 42-441 I42M): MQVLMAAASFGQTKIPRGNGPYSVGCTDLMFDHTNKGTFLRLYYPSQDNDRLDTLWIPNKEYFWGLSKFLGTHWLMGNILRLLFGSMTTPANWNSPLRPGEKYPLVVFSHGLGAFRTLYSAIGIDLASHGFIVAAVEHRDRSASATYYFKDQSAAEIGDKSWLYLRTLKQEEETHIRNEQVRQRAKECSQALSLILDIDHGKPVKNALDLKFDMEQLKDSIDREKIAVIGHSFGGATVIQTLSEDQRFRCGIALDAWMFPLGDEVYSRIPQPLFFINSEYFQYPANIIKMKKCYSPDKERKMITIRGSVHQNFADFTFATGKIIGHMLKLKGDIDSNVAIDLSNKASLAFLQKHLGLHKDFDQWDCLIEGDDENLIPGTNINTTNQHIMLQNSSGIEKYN
Experimental: The recombinant Lp-PLA2 (rLp-PLA2) used in these examples was prepared in accordance with Reference Examples 4 to 6 based on the information disclosed in J. Biol. Chem., Oct. 27, 1995, No. 43, Vol. 270, pp. 25481-25487.
A gene optimized for E. coli (matched to E. coli codon usage) was synthesized (GenScript (NJ, USA)) based on the sequence data for a human Lp-PLA2 gene. Using the synthesized DNA as a template, a roughly 1200 bp PCR product was obtained by PCR using KOD FX (Toyobo Co., Ltd.) using as the sense primer the nucleotide sequence of SEQ ID NO: 5 in which the 42nd isoleucine was changed to the sequence of the initial methionine, with the nucleotide sequence of SEQ ID NO: 6 as the antisense primer. The resulting PCR product was digested with NdeI (Takara Bio Inc.) and BamHI (Takara Bio Inc.), and inserted into the NdeI-BamHI site of the expression vector pET-19b (Novagen) to obtain an Lp-PLA2/pET-19b expression plasmid. This expression plasmid was transformed into One shot BL21(DE3) Chemically Competent E. coli, to obtain a transformant called Lp-PLA2/pET-19b/BL21(DE3) comprising a recombinant vector containing a polynucleotide consisting of a nucleotide sequence encoding Lp-PLA2 with a histidine tag from the vector added at the N-terminus.
as §2

[1] = Example 9, 10 mM substrate in R2, sample Citrated pooled plasma
[2] = Example 9, 10 mM substrate in R2, sample Heparin pooled plasma
[3] = Example 9, 10 mM substrate in R2, sample Individual serum 16
[4] = Example 9, 10 mM substrate in R2, sample Pooled serum C
[5] = Example 9, 10 mM substrate in R2, sample Pooled serum J042
[6] = Example 10, 0.03% Trinder reagent in R1 with 4-AA, sample Individual serum No16
[7] = Example 10, 0.03% Trinder reagent in R1 with 4-AA, sample Individual serum No78
[8] = Example 10, 0.03% Trinder reagent in R1 with 4-AA, sample Pooled serum J042
[9] = Example 4, 50 mM buffer pH 7.5 in R1 and R2, sample Individual serum 16
[10] = Example 4, 50 mM buffer pH 7.5 in R1 and R2, sample Individual serum 78

Compound	Lp-PLA2 activity value (Lp-PLA2; [6])	absorbance change per minute (sensitivity) (Lp-PLA2; [6])	Lp-PLA2 activity value (Lp-PLA2; [7])	absorbance change per minute (sensitivity) (Lp-PLA2; [7])	Lp-PLA2 activity value (Lp-PLA2; [8])	absorbance change per minute (sensitivity) (Lp-PLA2; [8])	Lp-PLA2 activity value (Lp-PLA2; [9])	absorbance change per minute (sensitivity) (Lp-PLA2; [9])	Lp-PLA2 activity value (Lp-PLA2; [10])	absorbance change per minute (sensitivity) (Lp-PLA2; [10])	also measured
CCCCCCCCCCCCCCCC(=O)OC[C@H](COP(=O)([O-])OCC[N+](C)(C)C)OC(C)=O [1-Palmitoyl-2-acetyl-sn-glycero-PC, 1-Palmitoyl-2-acetyl-sn-glycero-3-phosphocholine]											Lp-PLA2 activity value (Lp-PLA2; [1]): 34.4 nmol/min/mL; absorbance change per minute (sensitivity) (Lp-PLA2; [1]): 24.3 ΔmAbs/min; Lp-PLA2 activity value (Lp-PLA2; [2]): 44.1 nmol/min/mL; absorbance change per minute (sensitivity) (Lp-PLA2; [2]): 31.1 ΔmAbs/min; Lp-PLA2 activity value (Lp-PLA2; [3]): 82.3 nmol/min/mL; absorbance change per minute (sensitivity) (Lp-PLA2; [3]): 58.1 ΔmAbs/min; Lp-PLA2 activity value (Lp-PLA2; [4]): 44.9 nmol/min/mL; absorbance change per minute (sensitivity) (Lp-PLA2; [4]): 31.7 ΔmAbs/min; Lp-PLA2 activity value (Lp-PLA2; [5]): 45.2 nmol/min/mL; absorbance change per minute (sensitivity) (Lp-PLA2; [5]): 31.9 ΔmAbs/min; Relative activity (Lp-PLA2; Example 9, sample Citrated pooled plasma): 103%; Relative activity (Lp-PLA2; Example 9, sample Heparin pooled plasma): 99%; Relative activity (Lp-PLA2; Example 9, sample Individual serum 16): 87%; Relative activity (Lp-PLA2; Example 9, sample Pooled serum C): 110%; Relative activity (Lp-PLA2; Example 9, sample Pooled serum J042): 111%; Lp-PLA2 activity value (rLp-PLA2; 10 mM substrate in R2): 98.7 nmol/min/mL; absorbance change per minute (sensitivity) (rLp-PLA2; 10 mM substrate in R2): 69.7 ΔmAbs/min; Relative activity (rLp-PLA2; PAF(C16) = 100): 75%
CCN(CC(O)CS(=O)(=O)[O-])c1cc(OC)cc(OC)c1.[Na+] (centres unmarked) [DAOS, N-ethyl-N-(2-hydroxy-3-sulfopropyl)-3,5-dimethoxyaniline sodium salt]	33.7 nmol/min/mL	14.4 ΔmAbs/min	14.5 nmol/min/mL	6.2 ΔmAbs/min	14.1 nmol/min/mL	6.0 ΔmAbs/min					
O=P(O)(O)O [Pi-K, potassium phosphate]							84.3 nmol/min/mL	36.0 ΔmAbs/min	37.5 nmol/min/mL	16.0 ΔmAbs/min	
Cc1cccc(N(CCCCS(=O)(=O)[O-])CCCCS(=O)(=O)[O-])c1.[Na+].[Na+] [TODB, N,N-bis(4-sulfobutyl)-3-methylaniline, disodium salt]	71.0 nmol/min/mL	30.3 ΔmAbs/min	30.0 nmol/min/mL	12.8 ΔmAbs/min	31.9 nmol/min/mL	13.6 ΔmAbs/min					values for absorbance change (sensitivity) compared with DAOS (Lp-PLA2; Example 10): about twice those obtained with DAOS
CCN(CC(O)CS(=O)(=O)[O-])c1cccc(C)c1.O.O.[Na+] (centres unmarked) [TOOS, N-ethyl-N-(2-hydroxy-3-sulfopropyl)-3-methylaniline, sodium salt, dihydrate]	69.3 nmol/min/mL	29.6 ΔmAbs/min	28.1 nmol/min/mL	12.0 ΔmAbs/min	30.9 nmol/min/mL	13.2 ΔmAbs/min					values for absorbance change (sensitivity) compared with DAOS (Lp-PLA2; Example 10): about twice those obtained with DAOS
NC(CO)(CO)CO [Tris, 2-Amino-2-hydroxymethyl-1,3-propanediol]							99.1 nmol/min/mL	42.3 ΔmAbs/min	44.7 nmol/min/mL	19.1 ΔmAbs/min	

The next lines start with results.

Lp-PLA2 activity value (Lp-PLA2; [6])	absorbance change per minute (sensitivity) (Lp-PLA2; [6])	Lp-PLA2 activity value (Lp-PLA2; [7])	absorbance change per minute (sensitivity) (Lp-PLA2; [7])	Lp-PLA2 activity value (Lp-PLA2; [8])	absorbance change per minute (sensitivity) (Lp-PLA2; [8])	Lp-PLA2 activity value (Lp-PLA2; [9])	absorbance change per minute (sensitivity) (Lp-PLA2; [9])	Lp-PLA2 activity value (Lp-PLA2; [10])	absorbance change per minute (sensitivity) (Lp-PLA2; [10])	Compound	also measured
						76.4 nmol/min/mL	32.6 ΔmAbs/min	36.5 nmol/min/mL	15.6 ΔmAbs/min	O=S(=O)(O)CCN1CCN(CCO)CC1 [HEPES, 2-[4-(2-Hydroxyethyl)-1-piperazinyl]ethanesulfonic acid]	
						81.3 nmol/min/mL	34.7 ΔmAbs/min	39.4 nmol/min/mL	16.8 ΔmAbs/min	O=S(=O)(O)CCCN1CCOCC1 [MOPS, 3-Morpholinopropanesulfonic acid]	
						89.5 nmol/min/mL	38.2 ΔmAbs/min	43.1 nmol/min/mL	18.4 ΔmAbs/min	O=S(=O)(O)CCN1CCN(CCS(=O)(=O)O)CC1 [PIPES, Piperazine-1,4-bis(2-ethanesulfonic acid)]	
						75.7 nmol/min/mL	32.3 ΔmAbs/min	37.5 nmol/min/mL	16.0 ΔmAbs/min	O=S(=O)(O)CCNC(CO)(CO)CO [TES, N-tris(hydroxymethyl)methyl-2-aminoethanesulfonic acid]	
